According to patent US11779628B2, “Use of cell-permeable peptide inhibitors of the JNK signal transduction pathway for the treatment of various diseases” (Xigen Inflammation Ltd., priority 2014, dated 2023):

Assays:
[1] = tested on: gerbil, transient global ischemia; details: Carboni et al. 2004; cited from earlier work
[2] = tested on: primary embryonic cultures and differentiated PC12 cells; details: after trophic withdrawal; cited from earlier work
Sprague-Dawley rats, STZ = assay: Rat model of diabetic nephropathy (STZ, high fat diet); format: in vivo; details: XG-102 1, 2, 4 mg/kg iv weekly; Losartan 25 mg/kg po daily; 9 weeks
Source text: Losartan has been used as a positive control. Seventy-four male Sprague-Dawley rats (200-250 g; including 4 spare animals) from Charles River (Margate, Kent) were used. […] The diet has been purchased from Research Diets, New Jersey, USA. […] Animals have been housed in pairs throughout the study. […] During the third week of habituation, a blood sample has been taken from the lateral tail vein in the freely fed state using a hand-held glucose meter (One Touch Ultra 2). Blood sampling began at approximately 09:00. […] About 40 animals have been assigned to Cohort A and the remaining 30 to Cohort B, balanced as far as possible for body weight, plasma glucose and food and water intake. […] For the 7-day period post STZ dose, animals have been weighed daily and food and water intake determined twice weekly. For the remaining study duration, animals have been weighed and water and food intake assessed twice weekly (always on the day of intravenous dosing and typically on water refill day(s)). […] Animals have been weighed prior to dosing (this weight was recorded). Food and water have been recorded on the same days as the intravenous groups (A-E) only. […] Creatinine, glucose, urea, total protein and electrolytes (Na, K, Cl and Ca) have been determined on urine samples using a COBAS […] and associated reagents (n=2 for all urine analyses). […] Food consumed and water drunk has also been calculated. […]

N#CC(c1ccnc(NCCc2cccnc2)n1)c1nc2ccccc2s1 (stereo not drawn) [AS601245]
delayed loss of hippocampal CA1 neurons [1]: provided significant protection against the delayed loss of hippocampal CA1 neurons

CCSCc1ccc2c(c1)c1c3c(c4c5cc(CSCC)ccc5n5c4c1n2[C@H]1C[C@](O)(C(=O)OC)[C@]5(C)O1)CNC3=O [CEP-1347]
neuronal survival [2]: promotes neuronal survival at dosages that inhibit activation of the c-Jun amino-terminal kinases (JNKs)

CCCCc1nc(Cl)c(CO)n1Cc1ccc(-c2ccccc2-c2nn[nH]n2)cc1 [Losartan]
body weight (Sprague-Dawley rats, STZ): has been significantly lower
